Reference: US6534522B2, “Subtype-selective NMDA receptor ligands and the use thereof” (Warner-Lambert Company, priority 1995, dated 2003)
Counter-ions that a name gives are not always drawn. Like-named read-outs stand apart in the source and are kept apart here.

Tests used:
NR1A/2C NMDA receptor = NR1A/2C NMDA receptor (Rattus norvegicus, UniProt P35439+Q00961); test: Xenopus oocyte expression system, two-electrode voltage clamp, NR1A/2C; assay type: cell-based
From the text: (§1) Electrophysiological assays may be utilized to characterize the actions of potential subtype-selective ligands at NMDA receptors expressed in Xenopus oocytes. The ligand may be assayed at the different subunit combinations of cloned rat NMDA receptors corresponding to the four putative NMDA receptor subtypes (Moriyoshi et al., Nature (Lond.) 354:31-37 (1991); Monyer et al., Science (Washington, D.C.) 256:1217-1221 (1992); Kutsuwada et al., Nature (Lond.) 358:36-41 (1992); Sugihara et al., Biochem. Biophys. Res. Comm. 185:826-832 (1992)).
(§2) Using fixed saturating concentrations of agonists (glutamate 100 μM, glycine 1-10 μM depending on subunit combination), the inhibitory potency of a putative subtype-selective ligand may be assayed at the NMDA receptors assembled from NR1A/2A, NR1A/2B, NR1A/2C and NR1A/2D subunit combinations.
(§3) The Xenopus oocyte expression system. Mature female Xenopus laevis were anaesthetized (20-40 min) using 0.15% 3-aminobenzoic acid ethyl ester (MS-222) and 2-4 ovarian lobes were surgically removed. Oocytes at developmental stages IV-VI (Dumont, J. N., J. Morphol. 136:153-180 (1972)), were dissected from the ovary still surrounded by enveloping ovarian tissues. Follicle-enclosed oocytes were micro-injected with 1:1 mixtures of cRNA:NR1A+NR2A, 2B, 2C or 2D; injecting ˜2, 5, or 20 ng of RNA encoding each receptor subunit. NR1A encoding cRNA was injected alone at ˜20 ng. Oocytes were stored in Barth's medium containing (in mM): NaCl, 88; KCl, 1; CaCl2, 0.41; Ca(NO3)2, 0.33; MgSO4, 0.82; NaHCO3, 2.4; HEPES 5; pH 7.4, with 0.1 mg/mL gentamycin sulphate. While oocytes were still surrounded by enveloping ovarian tissues the Barth's medium was supplemented with 0.1% bovine serum. Oocytes were defolliculated 1-2 days following injections by treatment with collagenase (0.5 mg/mL Sigma Type I for 0.5-1 hr) (Miledi and Woodward, J. Physiol. (Lond.) 416:601-621 (1989)) and subsequently stored in serum-free medium.
(§4) Electrical recordings were made using a conventional two-electrode voltage clamp (Dagan TEV-200) over periods ranging between 3-21 days following injection. Oocytes were placed in a 0.1 mL recording chamber continuously perfused (5-15 mL min^−1) with frog Ringer's solution containing (in mM): NaCl, 115; KCl, 2; CaCl2, 1.8; HEPES, 5; pH 7.4. Drugs were applied by bath perfusion. When using the more rapid flow rates, half-times for mid-chamber solution changes were between 2-3 sec, however, exchange rates for drug solutions at the oocyte surface (i.e. beneath the vitelline envelope and among the tangles of microvilli) were probably considerably longer (Woodward et al., Mol. Pharmacol. 41:89-103 (1992)). Zero-Ca^2+/Ba^2+ Ringer had the composition (in mM): NaCl, 115; KCl, 2; BaCl2, 1.8; HEPES, 5; pH 7.4. Intraoocyte injections were made by pneumatic pressure-pulse ejection from micropipettes (Miledi and Parker, J. Physiol. (Lond.) 357:173-183 (1984)). Injection solutions of EGTA (40-400 mM) and BAPTA (50-500 mM) were made up in H2O, pH adjusted to 7.4 with KOH or HCl, and filtered to minimize plugging (Acrodisc-13, […]). Pressure was set between 200-400 kPa. The volume of injections was regulated by adjusting the time of pulses (0.1-1 sec) and was estimated by measuring the diameters of ejected droplets.
(§5) Concentration-inhibition curves were fit with equation 2.
(§6) I/Icontrol=1/(1+([antagonist]/10^−pIC50)^n) Eq. 2
(§7) in which Icontrol is the current evoked by agonists alone, pIC50=−log IC50, […] is the concentration of antagonist that produces half maximal inhibition, and n is the slope factor. For incomplete curves analysis by fitting was unreliable and IC50 values were calculated by simple regression over linear portions of the curves (Origin: Microcal Software).
(§8) Drugs were initially dissolved at concentrations of 10-100 mM in DMSO. Dilutions were then made to generate a series of DMSO stock solutions over the range 10 μM to 100 mM. Working solutions were made by 1000-3000 fold dilution of stocks into Ringer. […]

NR1A/2B NMDA receptor = NR1A/2B NMDA receptor (Rattus norvegicus, UniProt P35439+Q00960); test: Xenopus oocyte expression system, two-electrode voltage clamp, NR1A/2B; assay type: cell-based
NR1A/2B NMDA receptor, sequence (Q00960 27-1482, other chains not shown): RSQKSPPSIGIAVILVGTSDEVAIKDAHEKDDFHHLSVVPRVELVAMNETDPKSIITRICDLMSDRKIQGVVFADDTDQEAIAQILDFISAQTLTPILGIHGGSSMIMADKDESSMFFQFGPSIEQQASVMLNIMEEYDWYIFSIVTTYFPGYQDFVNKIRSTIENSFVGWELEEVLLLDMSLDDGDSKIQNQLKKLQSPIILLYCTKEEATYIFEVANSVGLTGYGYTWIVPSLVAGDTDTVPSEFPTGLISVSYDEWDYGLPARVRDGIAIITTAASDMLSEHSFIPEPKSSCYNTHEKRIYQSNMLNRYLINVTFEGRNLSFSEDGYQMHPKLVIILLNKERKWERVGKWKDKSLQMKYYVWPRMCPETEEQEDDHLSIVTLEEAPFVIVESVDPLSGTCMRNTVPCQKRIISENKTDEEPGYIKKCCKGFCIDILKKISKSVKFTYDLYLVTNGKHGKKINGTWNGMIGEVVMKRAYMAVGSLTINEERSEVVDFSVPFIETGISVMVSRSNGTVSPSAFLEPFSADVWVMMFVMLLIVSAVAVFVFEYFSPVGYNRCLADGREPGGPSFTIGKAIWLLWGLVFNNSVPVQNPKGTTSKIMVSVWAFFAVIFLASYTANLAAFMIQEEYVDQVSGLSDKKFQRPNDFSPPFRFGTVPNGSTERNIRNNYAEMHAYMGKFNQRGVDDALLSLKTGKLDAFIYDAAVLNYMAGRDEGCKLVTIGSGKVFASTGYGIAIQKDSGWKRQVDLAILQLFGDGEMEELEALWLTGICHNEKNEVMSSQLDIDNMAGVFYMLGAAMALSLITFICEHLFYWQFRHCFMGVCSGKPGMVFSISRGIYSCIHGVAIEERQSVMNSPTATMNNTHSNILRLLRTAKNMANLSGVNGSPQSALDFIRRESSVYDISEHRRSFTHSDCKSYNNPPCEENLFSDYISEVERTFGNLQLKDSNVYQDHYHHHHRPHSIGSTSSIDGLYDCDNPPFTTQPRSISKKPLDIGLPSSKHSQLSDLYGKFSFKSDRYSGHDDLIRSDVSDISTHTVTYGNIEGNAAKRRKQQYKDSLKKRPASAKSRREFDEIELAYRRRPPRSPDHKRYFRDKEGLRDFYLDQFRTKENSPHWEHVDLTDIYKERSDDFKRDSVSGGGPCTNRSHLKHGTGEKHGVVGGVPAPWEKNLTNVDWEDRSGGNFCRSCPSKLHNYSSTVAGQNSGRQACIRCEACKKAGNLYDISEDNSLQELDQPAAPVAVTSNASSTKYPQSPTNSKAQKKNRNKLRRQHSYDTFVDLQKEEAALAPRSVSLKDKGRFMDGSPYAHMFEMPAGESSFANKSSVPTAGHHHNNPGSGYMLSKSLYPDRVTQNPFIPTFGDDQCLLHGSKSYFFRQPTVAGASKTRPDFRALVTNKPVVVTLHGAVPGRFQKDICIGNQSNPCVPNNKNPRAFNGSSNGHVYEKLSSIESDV
From the text: as §1, §2, §3, §4, §5, §6, §7, §8

NR1A/2A NMDA receptor = NR1A/2A NMDA receptor (Rattus norvegicus, UniProt P35439+Q00959); test: Xenopus oocyte expression system, two-electrode voltage clamp, NR1A/2A; assay type: cell-based
NR1A/2A NMDA receptor, sequence (Q00959 20-1464 limits assumed, other chains not shown): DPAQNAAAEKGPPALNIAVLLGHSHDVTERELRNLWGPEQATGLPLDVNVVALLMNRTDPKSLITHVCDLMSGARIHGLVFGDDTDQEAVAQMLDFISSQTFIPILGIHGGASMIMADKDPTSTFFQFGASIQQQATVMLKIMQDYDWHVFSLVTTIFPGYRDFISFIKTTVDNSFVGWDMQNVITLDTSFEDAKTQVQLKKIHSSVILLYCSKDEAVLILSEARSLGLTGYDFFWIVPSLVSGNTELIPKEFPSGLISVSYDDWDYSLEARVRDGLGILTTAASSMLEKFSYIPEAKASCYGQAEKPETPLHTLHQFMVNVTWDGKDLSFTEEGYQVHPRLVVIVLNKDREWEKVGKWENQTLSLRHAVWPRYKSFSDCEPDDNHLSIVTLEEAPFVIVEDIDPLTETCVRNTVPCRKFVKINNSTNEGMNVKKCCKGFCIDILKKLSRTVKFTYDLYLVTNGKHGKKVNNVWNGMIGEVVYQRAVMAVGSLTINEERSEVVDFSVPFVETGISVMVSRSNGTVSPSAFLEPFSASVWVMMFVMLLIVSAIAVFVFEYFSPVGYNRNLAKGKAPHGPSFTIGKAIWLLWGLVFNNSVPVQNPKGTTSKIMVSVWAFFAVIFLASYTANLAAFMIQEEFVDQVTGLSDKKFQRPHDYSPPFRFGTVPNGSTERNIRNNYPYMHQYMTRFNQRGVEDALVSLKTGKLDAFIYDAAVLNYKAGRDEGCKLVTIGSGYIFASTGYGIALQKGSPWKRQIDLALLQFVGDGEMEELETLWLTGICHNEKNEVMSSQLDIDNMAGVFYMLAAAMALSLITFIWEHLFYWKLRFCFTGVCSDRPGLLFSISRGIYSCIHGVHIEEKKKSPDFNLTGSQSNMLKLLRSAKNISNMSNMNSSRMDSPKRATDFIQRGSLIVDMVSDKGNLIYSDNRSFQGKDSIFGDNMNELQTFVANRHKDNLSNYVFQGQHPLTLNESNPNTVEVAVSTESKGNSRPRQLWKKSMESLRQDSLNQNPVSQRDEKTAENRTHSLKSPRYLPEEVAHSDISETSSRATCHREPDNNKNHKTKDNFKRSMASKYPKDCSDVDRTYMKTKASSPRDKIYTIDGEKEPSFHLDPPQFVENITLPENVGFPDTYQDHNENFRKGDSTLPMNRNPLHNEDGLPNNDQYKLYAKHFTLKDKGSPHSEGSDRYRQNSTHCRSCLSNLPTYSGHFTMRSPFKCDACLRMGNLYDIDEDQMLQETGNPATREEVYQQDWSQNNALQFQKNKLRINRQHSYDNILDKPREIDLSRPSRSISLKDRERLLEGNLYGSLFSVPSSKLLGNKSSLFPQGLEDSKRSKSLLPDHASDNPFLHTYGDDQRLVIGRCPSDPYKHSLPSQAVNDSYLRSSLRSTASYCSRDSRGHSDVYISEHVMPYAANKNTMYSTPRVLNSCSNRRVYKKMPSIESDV
From the text: as §1, §2, §3, §4, §5, §6, §7, §8

[1] = test system: Maximal Electroshock-induced Seizures; test: Maximal electroshock-induced seizures; assay type: in vivo, mice; settings: Mus musculus, read-out: Mes. ED50
Procedure: Maximal Electroshock-induced Seizures. Seizures were induced by application of current (50 mA, 60 pulses/sec, 0.8 sec pulse width, 1 sec duration, d.c.) through saline-coated corneal electrodes using a Ugo Basile ECT device (Model 7801). […] A tonic seizure was defined as a hindlimb extension in excess of 90 degrees from the plane of the body. Results were treated in a quantal manner.

[2] = cloned NR1A/2C subunits expressed in Xenopus oocytes, inhibition of agonist-evoked membrane current, read-out: 1A/2C IC50
[3] = cloned NR1A/2B subunits expressed in Xenopus oocytes, inhibition of agonist-evoked membrane current, read-out: 1A/2B IC50
[4] = cloned NR1A/2A subunits expressed in Xenopus oocytes, inhibition of agonist-evoked membrane current, read-out: 1A/2A IC50
[5] = mice, tonic hindlimb extensor response after corneal current 50 mA

NR1A/2C NMDA receptor, sequence (Q00961 20-1237, other chains not shown): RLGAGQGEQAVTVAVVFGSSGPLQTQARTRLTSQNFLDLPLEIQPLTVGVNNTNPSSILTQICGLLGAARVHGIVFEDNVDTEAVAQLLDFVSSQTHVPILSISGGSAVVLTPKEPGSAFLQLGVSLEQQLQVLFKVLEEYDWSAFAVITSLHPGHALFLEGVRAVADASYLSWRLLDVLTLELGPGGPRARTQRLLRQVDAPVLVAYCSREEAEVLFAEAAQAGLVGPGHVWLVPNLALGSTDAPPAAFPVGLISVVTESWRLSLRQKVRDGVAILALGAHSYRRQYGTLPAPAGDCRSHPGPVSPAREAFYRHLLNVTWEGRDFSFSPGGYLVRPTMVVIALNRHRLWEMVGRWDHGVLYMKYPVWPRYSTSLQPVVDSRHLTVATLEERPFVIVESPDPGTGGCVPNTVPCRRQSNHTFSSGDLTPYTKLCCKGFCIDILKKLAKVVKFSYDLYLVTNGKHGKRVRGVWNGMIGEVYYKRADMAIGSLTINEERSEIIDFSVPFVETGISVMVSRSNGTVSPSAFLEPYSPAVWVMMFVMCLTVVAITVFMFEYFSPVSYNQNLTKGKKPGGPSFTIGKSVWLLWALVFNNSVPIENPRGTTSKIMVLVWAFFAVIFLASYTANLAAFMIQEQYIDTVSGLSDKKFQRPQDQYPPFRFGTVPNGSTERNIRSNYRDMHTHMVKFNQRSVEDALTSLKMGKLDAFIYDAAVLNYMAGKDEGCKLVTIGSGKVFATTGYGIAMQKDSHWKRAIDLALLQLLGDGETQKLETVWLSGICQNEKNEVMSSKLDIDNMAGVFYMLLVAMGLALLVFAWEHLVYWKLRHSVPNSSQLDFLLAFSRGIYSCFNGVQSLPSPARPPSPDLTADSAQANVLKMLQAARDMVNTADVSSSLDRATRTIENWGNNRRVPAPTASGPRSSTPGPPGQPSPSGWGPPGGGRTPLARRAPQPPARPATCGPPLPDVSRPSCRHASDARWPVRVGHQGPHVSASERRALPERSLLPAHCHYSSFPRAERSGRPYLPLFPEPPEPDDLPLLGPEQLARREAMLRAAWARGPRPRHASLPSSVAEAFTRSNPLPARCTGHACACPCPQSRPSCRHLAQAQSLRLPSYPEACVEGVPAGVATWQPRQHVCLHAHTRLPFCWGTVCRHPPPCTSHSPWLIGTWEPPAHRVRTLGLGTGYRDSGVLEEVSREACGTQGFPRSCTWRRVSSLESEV

Row | SMILES | IC50 (NR1A/2C NMDA receptor; [2]) [µM] | IC50 (NR1A/2B NMDA receptor; [3]) [µM] | IC50 (NR1A/2A NMDA receptor; [4]) [µM] | melting point | ED50 [1] [mg/kg] | ED50 [1, 5] [mg/kg] | IC50 (NR1A/2C NMDA receptor) [µM] | IC50 (NR1A/2B NMDA receptor) [µM] | IC50 (NR1A/2A NMDA receptor) [µM]
1 | c1ccc(OCCCN2CCc3c([nH]c4ccccc34)C2)cc1 [Ex. 25, 2-(3-Phenoxypropyl)-1,2,3,4-tetrahydro-9H-pyrido[3,4-b]indole] | 175 | 9 | 60 | 123 to 124 °C |  |  |  |  | 
2 | OCCCN1CCC(Cc2ccccc2)CC1 [Ex. 83, 4-Benzyl-1-(3-hydroxypropyl)piperidine hydrobromide] | > 300 | 1.8 | 224 |  | 3.5 |  |  |  | 
3 | OCC(O)CN1CCC(Cc2ccccc2)CC1 (stereo not shown) [Ex. 85, 4-Benzyl-1-(2,3-dihydroxypropyl)piperidine] | > 300 | 6 | > 300 | 92 to 94 °C |  |  |  |  | 
4 | CC(O)CCN1CCC(Cc2ccc(F)cc2)CC1 (stereo not shown) [Ex. 91, 4-(4-Fluorobenzyl)-1-(3-hydroxybutyl) piperidine hydrochloride] | > 300 | 2.5 | 230 |  | 6 |  |  |  | 
5 | COc1ccc(CC2CCN(CCCO)CC2)cc1 [Ex. 93, 1-(3-Hydroxypropyl)-4-(4-methoxybenzyl) piperidine hydrobromide] | > 300 | 9 | > 300 |  | 8 |  |  |  | 
6 | CC(O)CCN1CCC(Cc2ccccc2)CC1.Cl (stereo not shown) [Ex. 100, 4-benzyl-1-(3-hydroxy-butyl) piperidine hydrochloride] |  |  |  | 133 to 135 °C | 3.5 |  | > 300 | 3 | > 300
7 | CC(O)CCN1CCC(Cc2ccc([N+](=O)[O-])cc2)CC1.Cl (stereo not shown) [Ex. 101, 4-(4-nitrobenzyl)-1-(3-hydroxybutyl) piperidine hydrochloride] |  | 280 | 260 | 105 to 107 °C |  |  |  |  | 
8 | CC(C)(O)CCN1CCC(Cc2ccccc2)CC1.Cl [Ex. 102, 4-benzyl-1-(3-hydroxy-3-methylbutyl) piperidine hydrochloride] |  |  |  | 136 to 138 °C |  |  | > 300 | 3.5 | > 300
9 | Cc1ccc(CC2CCN(CCC(C)O)CC2)cc1.Cl (stereo not shown) [Ex. 104, 4-(4-methylbenzyl)-1-(3-hydroxy-butyl) piperidine hydrochloride] | > 300 | 0.8 | 110 | 134 to 136 °C |  | 2 |  |  | 
10 | Cl.Oc1ccc(OCCN2CCC(C[C@]34C[C@H]5C[C@H](C[C@H](C5)C3)C4)CC2)cc1 [Ex. 107, 4-(1-Adamantylmethyl)-1-(2-(4-hydroxyphenoxy)ethyl)piperidine] | 75 | 160 | 250 | 178 to 179 °C |  |  |  |  | 

Further molecules by falling IC50 (NR1A/2B NMDA receptor; [3]), results first:

Row | IC50 (NR1A/2C NMDA receptor; [2]) [µM] | IC50 (NR1A/2B NMDA receptor; [3]) [µM] | IC50 (NR1A/2A NMDA receptor; [4]) [µM] | melting point | SMILES | ED50 [1] [mg/kg] | ED50 [1, 5] [mg/kg] | IC50 (NR1A/2C NMDA receptor) [µM] | IC50 (NR1A/2B NMDA receptor) [µM] | IC50 (NR1A/2A NMDA receptor) [µM]
11 | 105 | 15 | 30 | 130 to 131 °C | c1ccc(CCCN2CCc3c([nH]c4ccccc34)C2)cc1 [Ex. 26, 2-(3-Phenylpropyl)-1,2,3,4-tetrahydro-9H-pyrido[3,4-b]indole] |  |  |  |  | 
12 | > 300 | 6 | 270 | 74 to 76 °C | CC(CCO)N1CCC(Cc2ccccc2)CC1 (stereo not shown) [Ex. 84, 4-Benzyl-1-(3-hydroxy-1-methylpropyl)piperidine] |  |  |  |  | 
13 | 23 | 5 | 8.5 | 214 to 215 °C (dec.) | Br.Fc1ccc(OCCNN2CCC(Cc3ccc(Cl)cc3)CC2)cc1 [Ex. 106, 4-(4-Chlorobenzyl)-1-(N-(2-(4-fluorophenoxy)ethyl)amino)piperidine hydrobromide] |  |  |  |  | 
14 | > 300 | 3.3 | 290 | 62 to 64 °C | OCCN1CCC(Cc2ccccc2)CC1 [Ex. 82, 4-Benzyl-1-(2-hydroxyethyl)piperidine] |  |  |  |  | 
15 | > 300 | 1.6 | > 300 | 96 to 101 °C | CC(O)CCN1CCC(Cc2ccc(Cl)cc2)CC1.Cl (stereo not shown) [Ex. 99, 4-(4-chlorobenzyl)-1-(3-hydroxybutyl) piperidine hydrochloride] |  | 6 |  |  | 
16 | > 100 | 0.3 | 150 |  | OCCCN1CCC(Cc2ccc(Cl)cc2)CC1 [Ex. 89, 4-(4-Chlorobenzyl)-1-(3-hydroxypropyl) piperidine hydrobromide] |  | 5 |  |  | 
17 | 58 | 0.2 | 3.5 | 153 to 155 °C | Oc1ccc(CCNC2=NCC(Cc3ccccc3)CN2)cc1 (stereo not shown) [Ex. 103, 2-[2-(4-Hydroyphenyl)ethylamino]-5-benzyl-1,3-diazacyclohexene] |  |  |  |  | 
